Source: PMC12195695, “Multifaceted Biological Activity of Rutin, Quercetin, and Quercetin’s Glucosides” (Molecules, 2025)
Values joined by “and” are separate entries in the source; they are usually repeats but may differ in a detail not shown here. Equal entries are not always repeated. Structures can show the parent of a compound that is named as a salt. Where two headings read alike, the source gives them in different places. Marks after values point to notes of the source that are not given here.

Key:
[1] = Cyclic voltammetry: oxidation potential and antioxidant activity vs Trolox; assay type: physicochemical; settings: for Antioxidant power class based on first oxidation potential: classification according to Blasco et al. [51]; for Antioxidant Activity: cyclic voltammetry, area under anodic wave, 0.1 mM compound, Trolox regression, n = 6
Experimental: A galvanostat G 750 (Gamry Ins., Warminster, PA, USA) with a conventional three-electrode system was used for the cyclic voltammetric experiments, with Ru, Q, Ru, Q4′G, Q3G, and Q34′G (0.1 mM in 80% methanol) or Trolox solutions (0.1–2.5 mM) mixed with 0.2 M sodium acetate–acetic buffer (pH 4.5 in 80% methanol) at a ratio of 1:1 (v/v), as has previously been described in detail. The cyclic voltammograms were acquired in the range of −100 to 1300 mV at a scanning rate of 100 mV s^−1.

[2] = biological target: T1, angiotensin-converting enzymes (ACEs) from porcine kidneys (EC 3.4.15.1) (Sus scrofa, UniProt F1RRW5); test: biochemical
T1 construct: angiotensin-converting enzymes (ACEs) from porcine kidneys (EC 3.4.15.1); purchased Sigma (Sigma Chemical Company, Saint Louis, MO, USA); host or cells: porcine kidney
T1 sequence (F1RRW5 34-1309): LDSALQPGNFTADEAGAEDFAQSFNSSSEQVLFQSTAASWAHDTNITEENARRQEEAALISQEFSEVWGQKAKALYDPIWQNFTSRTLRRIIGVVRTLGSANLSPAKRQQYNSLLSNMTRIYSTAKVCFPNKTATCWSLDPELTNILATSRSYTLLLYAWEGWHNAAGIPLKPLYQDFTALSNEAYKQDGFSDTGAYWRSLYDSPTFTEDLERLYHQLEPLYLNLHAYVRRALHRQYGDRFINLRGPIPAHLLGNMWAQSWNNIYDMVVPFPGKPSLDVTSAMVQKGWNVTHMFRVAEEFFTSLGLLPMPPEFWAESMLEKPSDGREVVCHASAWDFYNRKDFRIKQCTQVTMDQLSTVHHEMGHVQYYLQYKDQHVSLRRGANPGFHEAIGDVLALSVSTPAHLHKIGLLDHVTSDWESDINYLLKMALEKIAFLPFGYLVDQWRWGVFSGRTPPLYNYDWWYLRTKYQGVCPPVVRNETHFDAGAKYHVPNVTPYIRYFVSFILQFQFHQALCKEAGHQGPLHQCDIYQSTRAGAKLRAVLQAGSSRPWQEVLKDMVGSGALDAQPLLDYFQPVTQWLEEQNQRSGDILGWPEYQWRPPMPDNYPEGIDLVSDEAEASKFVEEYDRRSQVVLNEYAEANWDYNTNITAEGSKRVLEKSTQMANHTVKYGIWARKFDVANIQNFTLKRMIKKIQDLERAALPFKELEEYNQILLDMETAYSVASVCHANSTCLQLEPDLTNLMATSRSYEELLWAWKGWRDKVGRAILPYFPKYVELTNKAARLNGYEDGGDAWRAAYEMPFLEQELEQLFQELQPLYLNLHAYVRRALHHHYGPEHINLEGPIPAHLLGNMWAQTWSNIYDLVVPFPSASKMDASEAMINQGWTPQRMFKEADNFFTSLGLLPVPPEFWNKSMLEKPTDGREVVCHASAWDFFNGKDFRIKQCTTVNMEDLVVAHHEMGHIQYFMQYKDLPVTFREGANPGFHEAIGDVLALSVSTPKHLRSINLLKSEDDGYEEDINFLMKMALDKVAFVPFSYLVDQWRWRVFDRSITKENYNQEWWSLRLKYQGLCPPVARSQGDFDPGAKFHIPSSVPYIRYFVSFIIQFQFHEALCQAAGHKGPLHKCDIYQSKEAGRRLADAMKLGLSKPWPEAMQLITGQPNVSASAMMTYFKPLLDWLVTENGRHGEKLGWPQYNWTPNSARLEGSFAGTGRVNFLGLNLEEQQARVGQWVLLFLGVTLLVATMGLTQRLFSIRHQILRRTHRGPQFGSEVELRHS
Experimental: Standards of rutin, quercetin, and quercetin’s glucosides were dissolved in 80% methanol. Each standard was diluted to various concentrations using deionized water to determine its ACE inhibitory activity, expressed as an IC50 value. The ACE stock solution was prepared by dissolving enzyme in glycerol at 50% with Buffer A (protein concentration approximately 150 μg/mL), whereas the working solution was prepared by the dilution of the stock solution with Buffer B to make a protein concentration of approximately 7.5 μg/mL. The substrate stock solution was prepared by dissolving the whole content (50 mg) of Abz-Gly-Phe (NO2)-Pro (Bachem) in 10.33 mL of Buffer C (concentration approximately 10 mM), while the working solution was prepared by the dilution of the substrate stock solution with Buffer C to make a final Abz-Gly-Phe (NO2)-Pro concentration of approximately 0.45 mM. […] The angiotensin-converting enzyme (ACE) inhibitory activity assay was conducted according to the method of Sentandreu and Toldra. The fluorescence generated was measured using a Tecan Infinite M1000 PRO multiscan microplate fluorometer (TK Biotech, Warsaw, Poland). To calculate the % of inhibition of ACE, the following equation was used: […] = 100 − (ΔRFUsample ∗ 100/ΔRFUnegative control) where ΔRFU = RFUat time 30 − RFUat time 0.
The IC50 value, indicating the sample concentration at a 50% inhibition of ACE activity, was determined using linear regression analysis of logarithmic plots. At least 3 replicates for each standard solution were conducted. Results were expressed as IC50 values.

[3] = system: advanced glycation endproduct (AGE) formation in BSA/glucose model system; test: Inhibition of AGE formation, BSA/glucose model system; assay type: biochemical; settings: fluorescence, linear regression, read-out: IC50 against AGE formation, BSA/Glucose Model System
Experimental: (§1) The positive control aminoguanidine and standards of rutin, quercetin, and quercetin’s glucosides were dissolved in DMSO and then in a phosphate buffer. The inhibitory activity against the formation of AGEs was analyzed in BSA/glucose and BSA/MGO model systems, as reported by Thornalley, and the fluorescent intensity was measured. The percentage of inhibition of AGEs was calculated from the obtained fluorescence of the test solution with or without inhibitors.

[4] = system: advanced glycation endproduct (AGE) formation in BSA/MGO model system; test: Inhibition of AGE formation, BSA/MGO model system; assay type: biochemical; settings: for anti-AGE activity higher in comparison to Ru / anti-AGE activity higher in relation to AG: BSA/MGO model system; for IC50: BSA/MGO, fluorescence, linear regression, read-out: IC50 against AGE formation, BSA/MGO Model System
Experimental: as §1

[5] = Cyclic voltammetry: oxidation potential and antioxidant activity vs Trolox; assay type: physicochemical; settings: vs. Ag/AgCl, 50 mM acetate-acetic buffer (pH 5.5) in 80% methanol, scan rate 100 mV s^-1, n = 6
[6] = system: ACE; parameters: method as in earlier work; settings: same fluorimetric method; ref 30 (Guerrero et al.); read-out: IC50 for ACE inhibition (literature); cited from earlier work

SMILES | Antioxidant power class based on first oxidation potential [1] | Antioxidant Activity [1] | IC50 [2] [µM] | IC50 [3] [µM] | anti-AGE activity higher in comparison to Ru [4] [%] | anti-AGE activity higher in relation to AG [4] [%] | IC50 [4] [µM] | First Oxidation Potential [5] | IC50 ([2]; IC50 for ACE inhibition, concentration range 1.0-0.01 mM, linear regression, n = 6) [µM] | IC50 [6] [µM]
O=c1c(O)c(-c2ccc(O[C@@H]3O[C@H](CO)[C@@H](O)[C@H](O)[C@H]3O)c(O)c2)oc2cc(O)cc(O)c12 [Q4′G, quercetin-4′-O-β-glucoside] | intermediate potentials (compounds with intermediate potentials (0.3 V < Ep < 0.8 V)) | 1.99 ± 0.09 ^c mM Trolox | 143 ± 1.44 | 259 ± 16 | 11 | 44 | 370 ± 23 | 482 mV and 482 ± 3 ^b mV | – | –
N[C@@H](CCC(=O)N[C@@H](CS)C(=O)NCC(=O)O)C(=O)O [GSH, reduced glutathione, reference compound] | – | – | – | – | – | – | – | – | 41.7 | –
O=c1c(O[C@@H]2O[C@H](CO)[C@@H](O)[C@H](O)[C@H]2O)c(-c2ccc(O[C@@H]3O[C@H](CO)[C@@H](O)[C@H](O)[C@H]3O)c(O)c2)oc2cc(O)cc(O)c12 [Q3,4′G, quercetin-3,4′-di-O-β-glucoside] | low antioxidant power (a compound with a low antioxidant power (0.8 V < Ep < 1.3 V)) | 1.07 ± 0.05 ^d mM Trolox | 115 ± 1.25 | 89 ± 5 | 27 | 64 | 324 ± 19 | 800 mV and 800 ± 7 ^a mV | – | –
N=C(N)NN [AG, aminoguanidine hydrochloride, reference compound] | – | – | – | 432 ± 38 | – | – | 531 ± 28 | – | – | –
C[C@@H]1O[C@@H](OC[C@H]2O[C@@H](Oc3c(-c4ccc(O)c(O)c4)oc4cc(O)cc(O)c4c3=O)[C@H](O)[C@@H](O)[C@@H]2O)[C@H](O)[C@H](O)[C@H]1O [Ru, quercetin-3-O-rutinoside] | intermediate potentials (compounds with intermediate potentials (0.3 V < Ep < 0.8 V)) | 2.04 ± 0.07 ^c mM Trolox | 121 ± 1.56 | 197 ± 8 | – | – | 413 ± 24 | 410 mV and 410 ± 5 ^c mV | – | 64
O=c1c(O)c(-c2ccc(O)c(O)c2)oc2cc(O)cc(O)c12 [Q, quercetin] | – | 3.92 ± 0.20 ^a mM Trolox | 59.29 ± 0.48 | 243 ± 12 | – | – | 466 ± 17 | 310 mV and 310 ± 4 ^e mV | – | 43
O=c1c(O[C@@H]2O[C@H](CO)[C@@H](O)[C@H](O)[C@H]2O)c(-c2ccc(O)c(O)c2)oc2cc(O)cc(O)c12 [Compound Q3G, quercetin-3-O-β-glucoside] | intermediate potentials (compounds with intermediate potentials (0.3 V < Ep < 0.8 V)) | 2.59 ± 0.04 ^b mM Trolox | 135.2 ± 1.04 | 47 ± 3 | 6 | 37 | 389 ± 22 | 390 mV and 390 ± 4 ^d mV | – | –
